Source: US20100234390A1, “NOVEL COMPOUND AND THEIR USE” (priority 2007, published 2010)
Values after ≈ are worked out from the molar mass of the structure shown.

Tests used:
Test in all cases: Agar dilution MIC
Details in all cases: 16-20 hours; for Antimicrobial Screening (MIC): 35° C.
E. faecalis MRO 04205 = format: cell-based, Enterococcus faecalis
Method: (§1) Briefly, the compounds of invention were weighed, dissolved in dimethyl sulfoxide, serially two fold diluted in the same solvent and then incorporated into molten Mueller Hinton Agar (MHA) in a petridish just before solidification, with each petridish containing a different concentration of a compound.
(§2) The bacterial inoculum was prepared by picking 3 to 5 well isolated bacterial colonies with the same morphological appearance from an 18-24 hours old culture with an inoculating loop, transferring the growth to a tube containing 3 mL of normal saline and adjusting the turbidity of the saline suspension to 0.5 Mc Farland Turbidity Standard equivalent to a bacterial population of 1.5×10^8 colony forming units (CFU) per mL of suspension. The suspension was diluted 1:10 in saline (i.e. 0.5 mL suspension 4.5 mL saline) to get a bacterial population of 1.5×10^7 CFU/mL as inoculum.
(§3) The inoculated petridishes were incubated at 35° C. in an ambient atmosphere for 16-20 hours.

E. faecalis ATCC 29212 = format: cell-based, Enterococcus faecalis
Method: as §1, §2, §3

E. faecalis MRO 04035 = format: cell-based, Enterococcus faecalis
Method: as §1, §2, §3

E. faecalis ATCC 51299 = format: cell-based, Enterococcus faecalis
Method: as §1, §2, §3

E. faecalis MRO 04050 = format: cell-based, Enterococcus faecalis
Method: as §1, §2, §3

[1] = test system: M. catarrhalis ATCC 43627; format: cell-based, Moraxella catarrhalis
Method: as §1, §2, §3

[2] = test system: M. catarrhalis ATCC 43617; format: cell-based, Moraxella catarrhalis
Method: as §1, §2, §3

[3] = test system: M. catarrhalis ATCC 43628; format: cell-based, Moraxella catarrhalis
Method: as §1, §2, §3

S. aureus MRO 0001 = format: cell-based, Staphylococcus aureus
Method: as §1, §2, §3

S. aureus MRO 00013 = format: cell-based, Staphylococcus aureus
Method: as §1, §2, §3

S. aureus ATCC 29213 = format: cell-based, Staphylococcus aureus
Method: as §1, §2, §3

S. aureus MRO 002053 = format: cell-based, Staphylococcus aureus
Method: as §1, §2, §3

S. aureus MRO 00048 = format: cell-based, Staphylococcus aureus
Method: as §1, §2, §3

S. aureus ATCC 43300 = format: cell-based, Staphylococcus aureus
Method: as §1, §2, §3

S. aureus MRO 00059 = format: cell-based, Staphylococcus aureus
Method: as §1, §2, §3

S. aureus MRO 00030 = format: cell-based, Staphylococcus aureus
Method: as §1, §2, §3

S. aureus MRO 00055 = format: cell-based, Staphylococcus aureus
Method: as §1, §2, §3

S. aureus MRO 0003 = format: cell-based, Staphylococcus aureus
Method: as §1, §2, §3

S. epidermidis MRO 02045 = format: cell-based
Method: as §1, §2, §3

[4] = test system: S. saprophyticus MRO 02003; format: cell-based
Method: as §1, §2, §3

[5] = test system: S. haemolyticus MRO 02064; format: cell-based
Method: as §1, §2, §3

[6] = test system: S. epidermidis MRO 002046; format: cell-based
Method: as §1, §2, §3

S. epidermidis MRO 02002 = format: cell-based
Method: as §1, §2, §3

S. epidermidis MRO 02095 = format: cell-based
Method: as §1, §2, §3

E. faecium MRO 04198 = format: cell-based, Enterococcus faecium
Method: as §1, §2, §3

E. faecium MRO 04037 = format: cell-based, Enterococcus faecium
Method: as §1, §2, §3

E. faecium ATCC 700221 = format: cell-based, Enterococcus faecium
Method: as §1, §2, §3

E. faecium MRO 04038 = format: cell-based, Enterococcus faecium
Method: as §1, §2, §3

COC(=S)NC[C@H]1CN(c2ccc(N3CCN(C(=O)c4ccc(N)nc4)CC3)c(F)c2)C(=O)O1 [Example 37, (S)—O-Methyl(3-(4-(4-(6-aminonicotinoyl)piperazin-1-yl)-3-fluorophenyl)-2-oxooxazolidin-5-yl)methylcarbamothioate]
Antimicrobial Screening (MIC) (E. faecalis MRO 04205): 0.25 µg/mL
Antimicrobial Screening (MIC) (E. faecalis ATCC 29212): 0.25 µg/mL
Antimicrobial Screening (MIC) (E. faecalis MRO 04035): 0.25 µg/mL
Antimicrobial Screening (MIC) (E. faecalis ATCC 51299): 0.25 µg/mL
Antimicrobial Screening (MIC) (E. faecalis MRO 04050): 0.25 µg/mL
Antimicrobial Screening (MIC) [1]: 2 µg/mL
Antimicrobial Screening (MIC) [2]: 1 µg/mL
Antimicrobial Screening (MIC) [3]: 1 µg/mL
Antimicrobial Screening (MIC) (S. aureus MRO 0001): 0.25 µg/mL
Antimicrobial Screening (MIC) (S. aureus MRO 00013): 0.5 µg/mL
Antimicrobial Screening (MIC) (S. aureus ATCC 29213): 0.5 µg/mL
Antimicrobial Screening (MIC) (S. aureus MRO 002053): 0.25 µg/mL
Antimicrobial Screening (MIC) (S. aureus MRO 00048): 0.25 µg/mL
Antimicrobial Screening (MIC) (S. aureus ATCC 43300): 0.5 µg/mL
Antimicrobial Screening (MIC) (S. aureus MRO 00059): 0.5 µg/mL
Antimicrobial Screening (MIC) (S. aureus MRO 00030): 0.5 µg/mL
Antimicrobial Screening (MIC) (S. aureus MRO 00055): 0.5 µg/mL
Antimicrobial Screening (MIC) (S. aureus MRO 0003): 0.5 µg/mL
Antimicrobial Screening (MIC) (S. epidermidis MRO 02045): 0.25 µg/mL
Antimicrobial Screening (MIC) [4]: 0.5 µg/mL
Antimicrobial Screening (MIC) [5]: 0.25 µg/mL
Antimicrobial Screening (MIC) [6]: 0.5 µg/mL
Antimicrobial Screening (MIC) (S. epidermidis MRO 02002): 0.5 µg/mL
Antimicrobial Screening (MIC) (S. epidermidis MRO 02095): 0.5 µg/mL
Antimicrobial Screening (MIC) (E. faecium MRO 04198): 0.25 µg/mL
Antimicrobial Screening (MIC) (E. faecium MRO 04037): 0.25 µg/mL
Antimicrobial Screening (MIC) (E. faecium ATCC 700221): 0.25 µg/mL
Antimicrobial Screening (MIC) (E. faecium MRO 04038): 0.25 µg/mL

COC(=S)NC[C@H]1CN(c2ccc(N3CCN(C(=O)COCc4ccccc4)CC3)c(F)c2)C(=O)O1 [Example 45, (S)—O-Methyl (3-(4-(4-(2-(benzyloxy)acetyl)piperazin-1-yl)-3-fluorophenyl)-2-oxooxazolidin-5-yl)methylcarbamothioate]
MIC (E. faecalis MRO 04205; Enterococcus faecalis, MRO04205, 35° C., read-out: Antimicrobial Screening (MIC)): 0.5 µg/mL (≈ 0.968 µM)
MIC (E. faecalis ATCC 29212; Enterococcus faecalis, ATCC29212, 35° C., read-out: Antimicrobial Screening (MIC)): 0.5 µg/mL (≈ 0.968 µM)
MIC (E. faecalis MRO 04035; Enterococcus faecalis, MRO04035, 35° C., read-out: Antimicrobial Screening (MIC)): 0.5 µg/mL (≈ 0.968 µM)
MIC (E. faecalis ATCC 51299; Enterococcus faecalis, ATCC51299, 35° C., read-out: Antimicrobial Screening (MIC)): 0.5 µg/mL (≈ 0.968 µM)
MIC (E. faecalis MRO 04050; Enterococcus faecalis, MRO04050, 35° C., read-out: Antimicrobial Screening (MIC)): 0.5 µg/mL (≈ 0.968 µM)
MIC ([1]; Moraxella catarrhalis, ATCC43627, 35° C., read-out: Antimicrobial Screening (MIC)): 2 µg/mL (≈ 3.87 µM)
MIC ([2]; Moraxella catarrhalis, ATCC43617, 35° C., read-out: Antimicrobial Screening (MIC)): 0.5 µg/mL (≈ 0.968 µM)
MIC ([3]; Moraxella catarrhalis, ATCC43628, 35° C., read-out: Antimicrobial Screening (MIC)): 1 µg/mL (≈ 1.94 µM)
MIC (S. aureus MRO 0001; Staphylococcus aureus, MRO0001, 35° C., read-out: Antimicrobial Screening (MIC)): 0.5 µg/mL (≈ 0.968 µM)
MIC (S. aureus MRO 00013; Staphylococcus aureus, MRO00013, 35° C., read-out: Antimicrobial Screening (MIC)): 1 µg/mL (≈ 1.94 µM)
MIC (S. aureus ATCC 29213; Staphylococcus aureus, ATCC29213, 35° C., read-out: Antimicrobial Screening (MIC)): 1 µg/mL (≈ 1.94 µM)
MIC (S. aureus MRO 002053; Staphylococcus aureus, MRO002053, 35° C., read-out: Antimicrobial Screening (MIC)): 1 µg/mL (≈ 1.94 µM)
MIC (S. aureus MRO 00048; Staphylococcus aureus, MRO00048, 35° C., read-out: Antimicrobial Screening (MIC)): 0.5 µg/mL (≈ 0.968 µM)
MIC (S. aureus ATCC 43300; Staphylococcus aureus, ATCC43300, 35° C., read-out: Antimicrobial Screening (MIC)): 0.5 µg/mL (≈ 0.968 µM)
MIC (S. aureus MRO 00059; Staphylococcus aureus, MRO00059, 35° C., read-out: Antimicrobial Screening (MIC)): 0.5 µg/mL (≈ 0.968 µM)
MIC (S. aureus MRO 00030; Staphylococcus aureus, MRO00030, 35° C., read-out: Antimicrobial Screening (MIC)): 1 µg/mL (≈ 1.94 µM)
MIC (S. aureus MRO 00055; Staphylococcus aureus, MRO00055, 35° C., read-out: Antimicrobial Screening (MIC)): 1 µg/mL (≈ 1.94 µM)
MIC (S. aureus MRO 0003; Staphylococcus aureus, MRO0003, 35° C., read-out: Antimicrobial Screening (MIC)): 1 µg/mL (≈ 1.94 µM)
MIC (S. epidermidis MRO 02045; Staphylococcus epidermidis, MRO02045, 35° C., read-out: Antimicrobial Screening (MIC)): 1 µg/mL (≈ 1.94 µM)
MIC ([4]; Staphylococcus saprophyticus, MRO02003, 35° C., read-out: Antimicrobial Screening (MIC)): 1 µg/mL (≈ 1.94 µM)
MIC ([5]; Staphylococcus haemolyticus, MRO02064, 35° C., read-out: Antimicrobial Screening (MIC)): 0.5 µg/mL (≈ 0.968 µM)
MIC ([6]; Staphylococcus epidermidis, MRO002046, 35° C., read-out: Antimicrobial Screening (MIC)): 1 µg/mL (≈ 1.94 µM)
MIC (S. epidermidis MRO 02002; Staphylococcus epidermidis, MRO02002, 35° C., read-out: Antimicrobial Screening (MIC)): 1 µg/mL (≈ 1.94 µM)
MIC (S. epidermidis MRO 02095; Staphylococcus epidermidis, MRO02095, 35° C., read-out: Antimicrobial Screening (MIC)): 1 µg/mL (≈ 1.94 µM)
MIC (E. faecium MRO 04198; Enterococcus faecium, MRO04198, 35° C., read-out: Antimicrobial Screening (MIC)): 0.5 µg/mL (≈ 0.968 µM)
MIC (E. faecium MRO 04037; Enterococcus faecium, MRO04037, 35° C., read-out: Antimicrobial Screening (MIC)): 0.5 µg/mL (≈ 0.968 µM)
MIC (E. faecium ATCC 700221; Enterococcus faecium, ATCC700221, 35° C., read-out: Antimicrobial Screening (MIC)): 0.5 µg/mL (≈ 0.968 µM)
MIC (E. faecium MRO 04038; Enterococcus faecium, MRO04038, 35° C., read-out: Antimicrobial Screening (MIC)): 0.5 µg/mL (≈ 0.968 µM)

COC(=S)NC[C@H]1CN(c2ccc(N3CCN(C(=O)CNS(C)(=O)=O)CC3)c(F)c2)C(=O)O1 [Example 43]
Antimicrobial Screening (MIC) (E. faecalis MRO 04205): 0.25 µg/mL
Antimicrobial Screening (MIC) (E. faecalis ATCC 29212): 0.25 µg/mL
Antimicrobial Screening (MIC) (E. faecalis MRO 04035): 0.25 µg/mL
Antimicrobial Screening (MIC) (E. faecalis ATCC 51299): 0.25 µg/mL
Antimicrobial Screening (MIC) (E. faecalis MRO 04050): 0.25 µg/mL
Antimicrobial Screening (MIC) [1]: 2 µg/mL
Antimicrobial Screening (MIC) [2]: 1 µg/mL
Antimicrobial Screening (MIC) [3]: 2 µg/mL
Antimicrobial Screening (MIC) (S. aureus MRO 0001): 0.25 µg/mL
Antimicrobial Screening (MIC) (S. aureus MRO 00013): 0.5 µg/mL
Antimicrobial Screening (MIC) (S. aureus ATCC 29213): 0.5 µg/mL
Antimicrobial Screening (MIC) (S. aureus MRO 002053): 0.5 µg/mL
Antimicrobial Screening (MIC) (S. aureus MRO 00048): 0.5 µg/mL
Antimicrobial Screening (MIC) (S. aureus ATCC 43300): 0.5 µg/mL
Antimicrobial Screening (MIC) (S. aureus MRO 00059): 0.5 µg/mL
Antimicrobial Screening (MIC) (S. aureus MRO 00030): 0.5 µg/mL
Antimicrobial Screening (MIC) (S. aureus MRO 00055): 0.5 µg/mL
Antimicrobial Screening (MIC) (S. aureus MRO 0003): 0.5 µg/mL
Antimicrobial Screening (MIC) (S. epidermidis MRO 02045): 0.5 µg/mL
Antimicrobial Screening (MIC) [4]: 0.5 µg/mL
Antimicrobial Screening (MIC) [5]: 0.5 µg/mL
Antimicrobial Screening (MIC) [6]: 0.25 µg/mL
Antimicrobial Screening (MIC) (S. epidermidis MRO 02002): 0.5 µg/mL
Antimicrobial Screening (MIC) (S. epidermidis MRO 02095): 0.5 µg/mL
Antimicrobial Screening (MIC) (E. faecium MRO 04198): 0.5 µg/mL
Antimicrobial Screening (MIC) (E. faecium MRO 04037): 0.25 µg/mL
Antimicrobial Screening (MIC) (E. faecium ATCC 700221): 0.25 µg/mL
Antimicrobial Screening (MIC) (E. faecium MRO 04038): 0.25 µg/mL
